The values below are quoted from earlier work in PMC11320581 (ACS Infectious Diseases, 2024).

The subject of the data set is M. tuberculosis gyrase with single-resistance mutations at GyrA Ala90 and Asp94. The following applies: cited from earlier work.

For `C[C@@H]1CN2c3c(cc4c(N5C(=O)OC[C@@H]5C)noc4c3F)CC3(C(=O)NC(=O)NC3=O)[C@H]2[C@H](C)O1` [zoliflodacin, Zoliflodacin], the “maximal double-stranded DNA scission with fluoroquinolone-resistant gyrases, fold higher than wild-type” value was 2- to 5 fold.
